Our source for the GI50, MYCN codepletion and DC50 values is article PMC12670405, “Second-Generation AURKA-Targeting PROTACs: Structural Optimization toward in Vivo Degradation in Neuroblastoma” (Journal of Medicinal Chemistry, 2025).

SMILES strings stand for the structures. Like-named read-outs stand apart in the source and are kept apart here.

In one test the test system is IMR-32. Kind of test: IncuCyte live-cell imaging, antiproliferative effect. The class given is cell-based. The following applies: Homo sapiens, IMR-32, 72 h, read-out: Cell GI50 72h, IMR-32. The method in brief:
(§1)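 Cells seeded in 384-well plates (neuroblastoma 1200–5000, HEK293T 600 cells/well), adhered overnight, then compound-treated in duplicate or triplicate; confluency tracked by IncuCyte live-cell imaging. Normalized confluence averaged from 3 experiments; absolute GI50 interpolated from four-parameter variable-slope curves.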

A further test relates to MYCN. Briefly: MYCN protein levels, Simple Western. In kind it is cell-based, human. The note with it: for MYCN codepletion: IMR-32, 500 nM, 24h postexposure; for DC50: read-out: MYCN DC50 24h. On the procedure: Cells were seeded in T-25 flasks at different densities ranging from 1 to 2 million cells per flask and allowed to adhere for 1–2 days. In experiments involving compound treatment, this was done by medium replacement containing the compound(s) of interest in their corresponding concentrations. In competition binding experiments, cells were first pretreated with an excess of MK-5108, thalidomide or MG-132 for 1 h by shaking gently at room temperature prior to addition of SK4454 or SK5527. All samples were normalized to contain the same percentage of DMSO as the negative DMSO controls. Cells were harvested on ice at their respective time points by scraping, washed with ice-cold PBS to collect remaining cells, and centrifuged (2500 rpm, 4 °C). A second washing and centrifugation step was performed prior to collection of the final cell pellets which were then snap-frozen in liquid nitrogen and kept frozen at −80 °C until further processing. Lysis of cell pellets occurred in cold RIPA buffer (0.5% w/v Sodium Deoxycholate, 150 mM NaCl, 50 mM TrisHCl pH 7.5, 0.1% w/v SDS, 1% w/v NP-40) supplemented with protease and phosphatase inhibitors (Roche, #11836145001, #04906845001) by rotating gently at 4 °C for 1h, followed by a centrifugation step for 10 min (10,000 rpm, 4 °C). The supernatant was collected and concentrations of the obtained protein lysates were measured using the Pierce BCA Protein Assay Kit (Thermo Fisher Scientific, #23227).
Simple Western analyses were performed with the Wes instrument (Bio-Techne) using the 12–230 kDa Wes Separation module and the EZ standard pack reagent 1 (Biotechne, #SM-W001, #PS-ST01EZ-8) following the manufacturer’s protocol. Protein lysates were loaded at 0.8 μg/μL under denaturing conditions (0.2 μg/μL for MYCN detection). Chemiluminescence peaks were generated by the Compass Software (Bio-Techne) and the area under the peaks calculated using the Gaussian fit method. Per lane, quantified data were always normalized to that of the loading control (Vinculin) prior to calculating fold changes relative to the negative DMSO control. Mean fold changes are calculated from 3 individual experiments. A list of the primary and secondary antibodies used can be found in the Supporting Information (Supplementary Table S7).
Graphs were generated using GraphPad Prism Software (version 10.1.2) or RStudio (R-4.3.2). All dose–response curves were computed on GraphPad Prism using the Variable Slope (four parameters) equation. Absolute half-maximal degradation (DC50), growth inhibitory (GI50) and enzymatic inhibitory (IC50) concentrations, as well as inhibition constants (Ki) were derived from dose–response curves via interpolation. Statistical tests were performed on GraphPad Prism and detailed in the figure legends. Unless otherwise stated, “n” in the figure legends indicates the number of independent experiments conducted at different times.

The next test has as its system HEK293T. Briefly: IncuCyte live-cell imaging, antiproliferative effect. The class given is cell-based. The following applies: Homo sapiens, HEK-293T. Summed up:
as §1

For orientation: GI50 means the concentration giving 50% growth inhibition.

As to `O=C1CCC(N2C(=O)c3cccc(OCCOCCOCCOCCNC(=O)[C@]4(Cc5cccc(Nc6nccs6)n5)CC[C@@H](Oc5cccc(Cl)c5F)CC4)c3C2=O)C(=O)N1` (some centres unmarked) [SK2188, reference compound], in the test with IMR-32, the 50% growth inhibitory concentration (GI50) amounted to 10 nM.

As for `Cc1cc(Nc2ccc(F)c(CC3(C(=O)N4CCC(CN5CCN(c6ccc(N7CCC(=O)NC7=O)cn6)CC5)CC4)CCN(Cc4cccc(Cl)c4F)CC3)n2)n[nH]1` [SK4454], in the test on MYCN, the MYCN codepletion is listed as around 50%. Moreover, the DC50 amounted to 117 nM in the test with MYCN (IMR-32), 1360 nM in the test on MYCN (NGP) and 1390 nM with MYCN (SJNB-8).

In the case of `Cc1cc(Nc2ccc(F)c(CC3(C(=O)N4CCC(F)(CN5CCN(c6ccc(N7CCC(=O)NC7=O)cn6)CC5)CC4)CCN(Cc4cccc(Cl)c4F)CC3)n2)n[nH]1` [SK5527], in the test with MYCN, the MYCN codepletion was around 50%. For the same molecule, the values for the DC50 with MYCN (IMR-32), in the test with MYCN (NGP) and in the test with MYCN (SJNB-8) were 236 nM, 89 nM and 772 nM, respectively. Moreover, the GI50 with HEK293T (72 h, read-out: Cell GI50 72h) is 408 nM; in the test with HEK293T (72h, read-out: GI50) it was around 500 nM.
